# Reference: patent US10118921B2, “Diarylmethylidene piperidine derivatives and their use as delta opoid receptor agnists” (PHARMNOVO AB, priority 2014, dated 2018)
# Key:
# Type in all cases: cell-based
# δ-opioid receptor (DOR) [1] = biological target: T1, δ-opioid receptor (DOR) (Homo sapiens, UniProt P41143); assay: cAMP measurement in δ-opioid-expressing CHO cells (DiscoveRx cAMP Hunter)
# Description: (§1) δ-opioid receptors (DOR) are coupled to inhibitory G proteins (Gi/o) which inhibit adenylyl cyclase activity, open K^+ channels and block Ca^2+ channels. They can also couple, in an agonist-dependent manner to β-arrestin 2, which lead to desensitization, and to MAP kinase (ERK) phosphorylation.
# (§2) In Vitro Assessment of δ-Opioid Agonist Potency: […]
# (§3) cAMP measurements will be made in δ-opioid-expressing CHO cells exposed to increasing agonist concentrations using DiscoveRx cAMP Hunter™ assay kits. β-arrestin recruitment will be measured in the presence of increasing agonist concentrations using DiscoveRx Pathunter® kits. Selectivity of mu- and kappa-opioid receptors will be performed using Cerep cAMP evaluation from ref. 1392 and 2071 (Cerep Le Bois l'Evéque, 86600 Celle l'Evescault, France).
# δ-opioid receptor (DOR) [2] = biological target: T1, δ-opioid receptor (DOR); assay: β-arrestin recruitment (DiscoveRx Pathunter)
# Description: as §1, §2, §3
# mu-opioid receptor = mu-opioid receptor (Homo sapiens, UniProt P35372); assay: Selectivity versus mu-opioid receptor, Cerep cAMP evaluation; conditions: ratio mu/delta
# Description: as §3
# kappa-opioid receptor = kappa-opioid receptor (Rattus norvegicus, UniProt P34975); assay: Selectivity versus kappa-opioid receptor, Cerep cAMP evaluation; conditions: ratio kappa/delta
# Description: as §3
# [3] = δ-opioid-expressing CHO cells, agonist potency, read-out: EC-50 cAMP
# [4] = β-arrestin recruitment, agonist potency, read-out: EC-50 beta-arrestin
# Sequence of kappa-opioid receptor (P34975 whole entry): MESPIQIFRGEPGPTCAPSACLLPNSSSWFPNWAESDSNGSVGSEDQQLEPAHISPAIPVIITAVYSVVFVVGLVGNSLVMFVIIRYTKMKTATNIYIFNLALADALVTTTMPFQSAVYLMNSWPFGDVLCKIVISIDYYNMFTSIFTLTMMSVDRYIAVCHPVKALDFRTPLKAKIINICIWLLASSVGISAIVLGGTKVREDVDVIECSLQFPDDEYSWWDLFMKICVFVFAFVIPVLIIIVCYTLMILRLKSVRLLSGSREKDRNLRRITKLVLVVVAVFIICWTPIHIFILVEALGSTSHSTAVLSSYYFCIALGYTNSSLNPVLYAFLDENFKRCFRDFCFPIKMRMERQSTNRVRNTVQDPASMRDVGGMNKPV
# Sequence of mu-opioid receptor (P35372 whole entry): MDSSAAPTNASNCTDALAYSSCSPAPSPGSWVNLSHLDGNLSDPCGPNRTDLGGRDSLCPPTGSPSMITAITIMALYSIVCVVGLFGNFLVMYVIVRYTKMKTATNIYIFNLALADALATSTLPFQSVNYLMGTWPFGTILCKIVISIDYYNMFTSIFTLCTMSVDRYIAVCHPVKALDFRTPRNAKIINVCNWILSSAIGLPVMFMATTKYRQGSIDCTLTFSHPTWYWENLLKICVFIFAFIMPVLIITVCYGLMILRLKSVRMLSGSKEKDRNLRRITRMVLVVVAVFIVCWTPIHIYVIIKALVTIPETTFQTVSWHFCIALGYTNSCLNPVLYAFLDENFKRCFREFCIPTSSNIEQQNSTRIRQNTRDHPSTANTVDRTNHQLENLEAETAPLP
# T1 sequence (P41143 whole entry): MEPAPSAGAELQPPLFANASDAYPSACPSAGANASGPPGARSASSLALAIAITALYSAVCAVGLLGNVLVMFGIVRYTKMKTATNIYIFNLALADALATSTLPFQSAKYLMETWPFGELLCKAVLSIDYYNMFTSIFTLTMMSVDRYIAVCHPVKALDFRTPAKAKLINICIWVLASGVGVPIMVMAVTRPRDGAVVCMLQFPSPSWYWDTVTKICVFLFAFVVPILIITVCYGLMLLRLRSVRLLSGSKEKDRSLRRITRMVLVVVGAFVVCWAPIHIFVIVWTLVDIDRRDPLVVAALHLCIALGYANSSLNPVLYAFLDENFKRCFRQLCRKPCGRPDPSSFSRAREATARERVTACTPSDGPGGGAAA
Structure (SMILES),EC50 (δ-opioid receptor (DOR) [1]; [3]),EC50 (δ-opioid receptor (DOR) [2]; [4]),Selectivity (mu/delta) (mu-opioid receptor),Selectivity (kappa/delta) (kappa-opioid receptor),EC50 (δ-opioid receptor (DOR) [1]),EC50 (δ-opioid receptor (DOR) [2])
"CN(C)C(=O)c1ccc(C(=C2CCN(Cc3ccc(C(F)(F)F)nc3)CC2)c2cccc(C(N)=O)c2)cc1 [Example 1a, 4-[(3-Carbamoylphenyl)(1-{[6-(trifluoromethyl)pyridin-3-yl]methyl}piperidin-4-ylidene)methyl]-N,N-dimethylbenzamide]",2.8 nM,28 nM,360,360,,
"CN(C)C(=O)c1ccc(C(=C2CCN(Cc3cncs3)CC2)c2cccc(C(N)=O)c2)cc1 [Example 1b, 4-[(3-Carbamoylphenyl)[1-(1,3-thiazol-5-ylmethyl)piperidin-4-ylidene]methyl]-N,N-dimethylbenzamide]",,,100000,1000,0.5 nM,4 nM
"Cc1nc[nH]c1CN1CCC(=C(c2ccc(C(=O)N(C)C)cc2)c2cccc(C(N)=O)c2)CC1 [Example 1c, 4-[(3-Carbamoylphenyl)({1-[(4-methyl-1H-imidazol-5-yl)methyl]piperidin-4-ylidene})methyl]-N,N-dimethylbenzamide]",0.5 nM,3 nM,1000,1000,,
